This is an account of results in US10695347B2, “Pyrimidine derivative and use thereof” (Hubei Bio-Pharmaceutical Industrial Technological Institute …, priority 2015, dated 2020).

The target in test [1] is ALK L1196M (Homo sapiens (Human), UniProt Q9UM73, L1196M). As to the kind of experiment: Inhibition of ALK L1196M kinase activity (Caliper mobility shift). The class given is biochemical. The procedure:
(§1) Inhibition of Compound I Against ALK Kinase Activity
(§2) • I. Preparation of 1× kinase buffer and stop buffer
(§3) 1) 1× Kinase Buffer • 50 mM HEPES. pH 7.5 • 0.0015% Brij-35 • 10 mM MgCl2 • 2 mM DTT • 2) stop buffer • 100 mM HEPES, pH 7.5 • 0.015% Brij-35 • 0.2% Coating Reagent #3 • 50 mM EDTA
(§4) 2. Prepare a Compound Solution to be Tested • Step 2.1 Dilute the compound to 50× of the final desired highest inhibitor concentration in reaction by 100% DMSO. Transfer 100 μl of this compound dilution to a well in a 96-well plate. For example, if desired highest inhibitor concentration is 1 μM, then prepare 50 μM of compound DMSO solution in this step.
(§5) Step 2.2 Further dilute said compound dilution by 3-fold in series, thus obtain 10 concentrations.
(§6) Step 2.3 Add 100 μl of 100% DMSO to two empty wells for no compound control and no enzyme control in the same 96-well plate. Mark the plate as source plate.
(§7) Step 2.4 Prepare an intermediate plate
(§8) Transfer 10 μl of each compound from the source plate to a new 96-well plate as the intermediate plate.
(§9) Add 90 μl of 1× kinase buffer to each well of the intermediate plate. Mix the compounds in the intermediate plate for 10 min on a shaker.
(§10) Transfer 5 μl of each well from the 96-well intermediate plate to a 384-well plate in duplicate. For example, A1 of the 96-well plate is transferred to A1 and A2 of the 384-well plate. A2 of the 96-well plate is transferred to A3 and A4 of the 384-well plate, and so on.
(§11) 4.1 Prepare a 2.5× kinase solution
(§12) Add kinase in 1× kinase base buffer, thus obtain the 2.5× kinase solution.
(§13) 4.2 Prepare a 2.5× peptide solution
(§14) 4.3 In each well of the assay plate obtained in step 3, there was 5 μL of the compound in 10% DMSO.
(§15) 4.4 Transfer the 2.5× enzyme solution to the assay plate.
(§16) 4.5 Incubate at room temperature for 10 min.
(§17) 4.6 Transfer the 2.5× peptide solution to the assay plate.
(§18) 4.7 Kinase reaction and stop
(§19) Incubate at 28° C. for 20 min.
(§20) Add 25 μl of stop buffer to stop reaction.
(§21) Conversion rate of the kinase was read via the Caliper.
(§22) 6.1 Copy conversion data from Caliper program.
(§23) 6.2 Convert conversion values to inhibition values with the following formula: Percent inhibition=(max−conversion)/(max−min)*100
(§24) where “max” stands for DMSO control; and “min” stands for low control.
(§25) 6.3 Fit the data in XLfit excel add-in version 4.3.1 and obtain IC50 values according to the following formula: Y=Bottom+(Top−Bottom)/[…].

In test [2] the target is ALK (Homo sapiens (Human), UniProt Q9UM73). The test can be described thus: Inhibition of ALK kinase activity (Caliper mobility shift). The test is classed as biochemical. The procedure:
as §1, §2, §3, §4, §5, §6, §7, §8, §9, §10, §11, §12, §13, §14, §15, §16, §17, §18, §19, §20, §21, §22, §23, §24, §25

Test [3] relates to Ba/F3 EML4-ALK cells. As to the kind of experiment: Suppression of Ba/F3 EML4-ALK cell proliferation (CellTiter-Glo). The class given is cell-based. The note with it: 3 days incubation. From the text: Cell media: RPMI-1640 medium, fetal calf serum (FCS), antibiotics (Penicillin-Streptomycin), IL-3, puromycin
Cell line: Ba/F3 EML4-ALK
Assay reagent: Cell Viability Assay Kit Celliter-Glo
(§26) Others: a 96-well plate, a 384-well plate, DMSO
(§27) As the amount of ATP can indicate the number of living cells directly, the living cells in medium are able to be quantified by determining the ATP level. In our experiment, we use a cell viability assay kit to quantify the living cells, which utilizes UltraGlow luciferase to generate a stable glow signal in the presence of ATP which is produced by metabolism of living cells, such as respiration. Specifically, a reagent CellTiter-Glo™ was added into cell culture media, and then the luminescent intensity was determined to measure proliferation of cells, as the luminescent intensity is in direct proportion to the ATP level which correlates positively to the number of living cells. The test plate was assayed by the Envision (PE).
(§28) Step 3.1 Culturing test cells
Ba/F3 EML4-ALK cells were planted into a 384-well plate, with almost 300 cells per well. The plate was placed in a carbon dioxide incubator overnight.
(§29) Step 3.2 Preparation of the compounds to be tested
10 concentrations of the working solutions were obtained in duplicate by dilution in 3-fold series with BRAVO.
Step 3.3 Mixing the compound to be tested with the test cells
The compounds to be tested at individual working concentrations were transferred into corresponding wells in the 384-well plate in the step 3.1, with 5 μM as the initial working concentration, and then the 384-well plate was incubated in the carbon dioxide incubator for 3 days.
To each well of the 384-well plate was added the reagent Promega CellTiter-Glo, and incubated at room temperature for 10 minutes to stabilize the luminescence signal. The results were read by the PerkinElmer Envision Multi-mode Plate Reader.

The subject of test [4] is Karpas299 cells. The test can be described thus: Suppression of Karpas299 cell proliferation (CellTiter-Glo). The test is classed as cell-based. The settings on record: 3 days incubation, read-out: Inhibition activity on Karpas299 cells IC50. The procedure: as §27, with “culture” for “medium”, “living-cell testing” for “cell viability assay”, “tested with” for “assayed by”
Cell media: RPMI-1640 medium, fetal calf serum (FCS), antibiotics (Penicillin-Streptomycin)
Assay reagent: Cell Viability Assay Kit CellTiter-Glo
as §26, §28
Karpas 299 cells were plated into a black 384-well plate, with 2500 cells in 45 μl cell suspension per well. The plate was placed in a carbon dioxide incubator overnight.
as §29
Each compound to be tested was dissolved in DMSO at 10 mM as the stock solution, which was left in a nitrogen-gas tank for storage.
After dilution of 10 μL stock solution (10 mM) into 2.5 mM as a starting working solution, 10 concentrations of the working solutions from 5 μM to 0.25 nM were obtained in duplicate by further dilution in 3-fold series with ECHO.
Step 3.3 Mixing the compound with the test cells
To each well of a new 96-well plate were added 49 μl medium and 1 μl of the compounds to be tested at individual working concentrations (10 concentrations in total). After oscillation,
5 μl of mixture in each well of the 96-well plate was transferred into corresponding wells in the 384-well plate in the step 3.1. The 384-well plate was incubated in the carbon dioxide incubator for 3 days.
To each well of the 384-well plate was added […] reagent Promega CellTiter-Glo. and incubated at room temperature for 10 minutes to stabilize the luminescence signal. The results were read with the PerkinElmer Envision Multi-mode Plate Reader.
A general note: ATP-based viability assays read luminescence as a measure of living cells.

Test [5] has as its system ALK-positive NSCLC. The note with it: 88 patients with ALK-positive NSCLCs who had undergone Crizotinib therapy, early clinical trial; cited from earlier work.

Where two headings read alike, the source gives them in different places.

One may read the IC50 as the point on the concentration scale where inhibition reaches its midpoint.

Chain of ALK L1196M (Q9UM73 19-1620 L1196M): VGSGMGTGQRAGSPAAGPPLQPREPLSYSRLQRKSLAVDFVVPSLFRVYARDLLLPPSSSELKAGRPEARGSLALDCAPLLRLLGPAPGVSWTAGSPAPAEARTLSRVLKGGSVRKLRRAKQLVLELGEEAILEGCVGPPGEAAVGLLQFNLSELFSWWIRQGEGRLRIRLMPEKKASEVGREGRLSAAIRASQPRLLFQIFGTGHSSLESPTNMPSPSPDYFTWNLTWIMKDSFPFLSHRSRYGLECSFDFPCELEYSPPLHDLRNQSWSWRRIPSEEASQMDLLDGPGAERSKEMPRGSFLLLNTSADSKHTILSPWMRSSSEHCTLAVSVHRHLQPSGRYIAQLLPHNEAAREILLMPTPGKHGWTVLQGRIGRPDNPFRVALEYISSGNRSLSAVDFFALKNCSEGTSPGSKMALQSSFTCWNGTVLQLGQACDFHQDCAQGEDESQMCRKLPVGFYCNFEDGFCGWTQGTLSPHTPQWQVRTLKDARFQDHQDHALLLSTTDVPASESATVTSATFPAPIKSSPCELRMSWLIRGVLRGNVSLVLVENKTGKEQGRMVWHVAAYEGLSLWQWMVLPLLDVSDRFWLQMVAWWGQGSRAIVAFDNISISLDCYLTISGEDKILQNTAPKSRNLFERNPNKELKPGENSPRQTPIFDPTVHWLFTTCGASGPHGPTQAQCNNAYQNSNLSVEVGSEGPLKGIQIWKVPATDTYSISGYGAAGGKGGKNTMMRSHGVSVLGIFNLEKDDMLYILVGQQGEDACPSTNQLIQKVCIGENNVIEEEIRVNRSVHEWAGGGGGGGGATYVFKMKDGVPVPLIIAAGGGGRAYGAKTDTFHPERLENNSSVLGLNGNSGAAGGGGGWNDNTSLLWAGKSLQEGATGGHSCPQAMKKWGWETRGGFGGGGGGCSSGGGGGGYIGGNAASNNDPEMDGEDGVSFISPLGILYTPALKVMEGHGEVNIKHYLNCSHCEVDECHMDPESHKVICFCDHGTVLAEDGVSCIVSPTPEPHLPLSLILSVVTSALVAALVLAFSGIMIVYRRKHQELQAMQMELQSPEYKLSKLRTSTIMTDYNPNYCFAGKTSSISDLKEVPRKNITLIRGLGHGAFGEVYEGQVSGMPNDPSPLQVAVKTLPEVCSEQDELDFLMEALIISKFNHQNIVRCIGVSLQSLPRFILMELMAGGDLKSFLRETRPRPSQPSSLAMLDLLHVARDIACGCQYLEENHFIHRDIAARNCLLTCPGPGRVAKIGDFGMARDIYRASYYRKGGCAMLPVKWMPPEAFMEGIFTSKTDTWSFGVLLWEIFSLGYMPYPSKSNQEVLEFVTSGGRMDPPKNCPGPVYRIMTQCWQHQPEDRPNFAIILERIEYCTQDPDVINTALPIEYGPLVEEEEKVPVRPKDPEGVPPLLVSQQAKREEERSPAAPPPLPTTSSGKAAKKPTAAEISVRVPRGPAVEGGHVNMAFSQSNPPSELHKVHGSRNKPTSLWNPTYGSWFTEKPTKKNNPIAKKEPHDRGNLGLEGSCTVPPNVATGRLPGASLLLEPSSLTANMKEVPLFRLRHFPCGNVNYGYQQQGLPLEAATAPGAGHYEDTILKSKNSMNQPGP
Chain of ALK (Q9UM73 19-1620): as the sequence (Q9UM73 19-1620 L1196M) above, with M1178L counted along it

On to `CC(C)Oc1cc(N2CCC(N(C)C)CC2)ccc1Nc1ncc(Cl)c(Nc2ccsc2S(=O)(=O)C(C)C)n1` [Compound I-82, 5-chloro-N^2-(4-(4-(dimethylamino)piperidin-1-yl)-2-isopropoxyphenyl)-N^4-(2-(isopropylsulfonyl)thiophen-3-yl) pyrimidine-2,4-diamine], for which the IC50 in test [1] was less than 1 nM; in test [2], less than 1 nM; in test [3] (Ba/F3 EML4-ALK, 72 h), 20 to 100 nM; in test [4] (Homo sapiens, KARPAS-299, 72 h) it was less than 50 nM.
Turning to `COc1cc(N2CCC(N3CCOCC3)CC2)ccc1Nc1ncc(Cl)c(Nc2cccnc2S(=O)(=O)C(C)C)n1` [Compound I-7], the IC50 was 1 to 10 nM in test [1]; 1 to 10 nM in test [2]; less than 20 nM in test [3] (Ba/F3 EML4-ALK, 72 h); less than 50 nM in test [4] (Homo sapiens, KARPAS-299, 72 h).
As for `COc1cc(C2=CCN(C(C)C)CC2)c(C)cc1Nc1ncc(Cl)c(Nc2cccnc2S(=O)(=O)C(C)C)n1` [Compound I-80, 5-chloro-N^2-(4-(1-isopropyl-1,2,3,6-tetrahydropyridin-4-yl)-2-methoxy-5-methylphenyl)-N^4-(2-(isopropylsulfonyl)pyridin-3-yl) pyrimidine-2,4-diamine], the IC50 in test [1] is 1 to 10 nM; in test [2], 1 to 10 nM; in test [3] (Ba/F3 EML4-ALK, 72 h) it was 20 to 100 nM; in test [4] (Homo sapiens, KARPAS-299, 72 h) it was less than 50 nM.
`COc1cc(N2CCC(N3CCN(C)CC3)CC2)ccc1Nc1ncc(Cl)c(Nc2cccnc2S(=O)(=O)C(C)C)n1` [Compound I-10]: the IC50 is 1 to 10 nM in test [1]; 1 to 10 nM in test [2]; less than 20 nM in test [3] (Ba/F3 EML4-ALK, 72 h); less than 50 nM in test [4] (Homo sapiens, KARPAS-299, 72 h).
Consider `COc1cc(C2=CCN(C)CC2)ccc1Nc1ncc(Cl)c(Nc2cccnc2S(=O)(=O)C(C)C)n1` [Compound I-84, 5-chloro-N^4-(2-(isopropylsulfonyl)pyridin-3-yl)-N^2-(2-methoxy-4-(1-methyl-1,2,3,6-tetrahydropyridin-4-yl)phenyl) pyrimidine-2,4-diamine], for which the IC50 in test [1] is 1 to 10 nM; in test [2] it was 1 to 10 nM; in test [3] (Ba/F3 EML4-ALK, 72 h), 20 to 100 nM; in test [4] (Homo sapiens, KARPAS-299, 72 h), less than 50 nM.
On to `COc1cc(N2CCC(N3CC(C)OC(C)C3)CC2)ccc1Nc1ncc(Cl)c(Nc2ccccc2S(=O)(=O)C(C)C)n1` (stereo not shown) [Compound I-17], for which the IC50 in test [1] was 1 to 10 nM; in test [2], 1 to 10 nM; in test [3] (Ba/F3 EML4-ALK, 72 h), less than 20 nM; in test [4] (Homo sapiens, KARPAS-299, 72 h), less than 50 nM.
For `Cc1cc(Nc2ncc(Cl)c(Nc3ccccc3S(=O)(=O)C(C)C)n2)c(OC(C)C)cc1C1CCNCC1` [LDK378, Ceritinib], the response rate in test [5] was 80%.
Consider `COc1cc(N2CCC(N(C)C)CC2)ccc1Nc1ncc(OC(F)F)c(Nc2ccccc2S(=O)(=O)C(C)C)n1` [Compound I-111, 5-(difluoromethoxy)-N^2-(4-(4-(dimethylamino)piperidin-1-yl)-2-methoxyphenyl)-N^4-(2-(isopropylsulfonyl)phenyl) pyrimidine-2,4-diamine], for which the IC50 in test [1] was less than 1 nM; in test [2] it was less than 1 nM; in test [3] (Ba/F3 EML4-ALK, 72 h), less than 20 nM; in test [4] (Homo sapiens, KARPAS-299, 72 h) it was less than 50 nM.
Consider `COc1cc(N2CCN(C(C)C)CC2)c(C)cc1Nc1ncc(OC(F)F)c(Nc2ccccc2S(=O)(=O)C(C)C)n1` [Compound I-115, 5-(difluoromethoxy)-N^2-(4-(4-isopropylpiperazin-1-yl)-2-methoxy-5-methylphenyl)-N^4-(2-(isopropylsulfonyl)phenyl) pyrimidine-2,4-diamine], for which the IC50 in test [1] was less than 1 nM; in test [2], less than 1 nM; in test [3], less than 20 nM; in test [4] it was less than 50 nM.
For “5-chloro-N^2-(2-isopropoxy-5-methyl-4-(1,2,3,6-tetrahydropiperidin-4-yl) phenyl)-N^4-(2-isopropylsulfonyl) pyridin-3-yl) pyrimidine-2,4-diamine [Compound I-90]”, the IC50 in test [1] is 1 to 10 nM; in test [2] it was 1 to 10 nM; in test [3], less than 20 nM; in test [4], less than 50 nM.
